Assay results published in ChEMBL document CHEMBL1221290, “Novel imidazobenzazepine derivatives as dual H1/5-HT2A antagonists for the treatment of sleep disorders” (Bioorg Med Chem Lett, 2010).

Experiments:
[1] = molecular target: T1, Alpha-1B adrenergic receptor (Homo sapiens, UniProt P35368); assay: Antagonist activity at human adrenergic Alpha-1B receptor assessed as intracellular calcium luminescence by cell based aequorin assay; assay type: functional
T1 sequence (P35368 whole entry): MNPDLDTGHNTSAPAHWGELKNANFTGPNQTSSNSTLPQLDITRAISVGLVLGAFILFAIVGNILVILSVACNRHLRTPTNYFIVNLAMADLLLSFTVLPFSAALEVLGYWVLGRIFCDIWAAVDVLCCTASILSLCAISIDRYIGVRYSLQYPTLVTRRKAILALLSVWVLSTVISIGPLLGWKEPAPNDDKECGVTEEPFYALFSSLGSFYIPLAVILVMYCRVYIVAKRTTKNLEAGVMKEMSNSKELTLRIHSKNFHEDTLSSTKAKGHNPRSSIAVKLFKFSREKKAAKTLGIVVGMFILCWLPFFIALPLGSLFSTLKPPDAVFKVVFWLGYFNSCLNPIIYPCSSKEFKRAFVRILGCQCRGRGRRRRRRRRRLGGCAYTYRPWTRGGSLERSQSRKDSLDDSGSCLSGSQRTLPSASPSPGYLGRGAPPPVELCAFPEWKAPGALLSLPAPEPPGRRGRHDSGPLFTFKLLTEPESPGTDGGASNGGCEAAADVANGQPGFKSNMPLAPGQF

[2] = molecular target: 5-hydroxytryptamine receptor 2B (Homo sapiens, UniProt P41595); assay: Antagonist activity at human 5HT2B receptor expressed in human SHSY5Y cells by FLPR assay; assay type: functional, cell-based, SH-SY5Y
[3] = molecular target: T2, Alpha-1A adrenergic receptor (Homo sapiens, UniProt P35348); assay: Antagonist activity at human adrenergic alpha1A receptor assessed as intracellular calcium luminescence by cell based aequorin assay; assay type: functional
T2 sequence (P35348 whole entry): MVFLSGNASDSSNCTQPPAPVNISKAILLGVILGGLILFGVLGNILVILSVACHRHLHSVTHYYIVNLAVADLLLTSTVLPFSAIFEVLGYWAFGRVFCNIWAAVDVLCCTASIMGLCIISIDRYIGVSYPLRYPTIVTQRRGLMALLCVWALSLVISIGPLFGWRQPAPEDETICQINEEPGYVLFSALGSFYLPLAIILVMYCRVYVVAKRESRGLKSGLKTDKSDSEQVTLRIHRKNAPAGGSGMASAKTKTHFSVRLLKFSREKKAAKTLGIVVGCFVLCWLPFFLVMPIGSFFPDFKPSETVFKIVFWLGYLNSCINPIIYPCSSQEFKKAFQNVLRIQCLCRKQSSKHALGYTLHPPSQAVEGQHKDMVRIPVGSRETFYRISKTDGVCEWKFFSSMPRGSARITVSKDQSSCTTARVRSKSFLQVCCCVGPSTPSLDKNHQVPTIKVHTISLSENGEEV

[4] = molecular target: 5-hydroxytryptamine receptor 2A (Homo sapiens, UniProt P28223); assay: Antagonist activity at human 5HT2A receptor expressed in HEK cells assessed as intracellular calcium luminescence by aequorin assay; assay type: functional, cell-based, HEK293
Histamine H1 receptor = Histamine H1 receptor (Homo sapiens, UniProt P35367); assay: Antagonist activity at human recombinant histamine H1 receptor expressed in CHO cells by FLPR assay; assay type: functional, cell-based
[5] = molecular target: T3, 5-hydroxytryptamine receptor 2C (Homo sapiens, UniProt P28335); assay: Antagonist activity at human 5HT2C receptor expressed in human SHSY5Y cells by FLPR assay; assay type: functional, cell-based, SH-SY5Y; details: for pKi: sh-sy5y
T3 sequence (P28335 whole entry): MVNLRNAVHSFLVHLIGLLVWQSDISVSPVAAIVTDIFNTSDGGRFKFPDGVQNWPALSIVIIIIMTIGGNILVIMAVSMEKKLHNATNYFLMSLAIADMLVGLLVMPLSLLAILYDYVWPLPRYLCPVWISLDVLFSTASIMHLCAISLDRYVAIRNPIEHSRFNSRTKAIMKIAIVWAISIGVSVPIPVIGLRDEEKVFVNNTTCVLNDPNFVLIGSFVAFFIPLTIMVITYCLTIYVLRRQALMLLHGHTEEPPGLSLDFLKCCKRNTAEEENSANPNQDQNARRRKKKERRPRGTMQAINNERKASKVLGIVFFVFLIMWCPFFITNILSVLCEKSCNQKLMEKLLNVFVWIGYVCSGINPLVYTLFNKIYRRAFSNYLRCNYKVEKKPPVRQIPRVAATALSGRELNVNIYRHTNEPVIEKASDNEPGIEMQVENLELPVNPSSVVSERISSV

[6] = Blood clearance in rat at 1 mg/kg, iv and 3 mg/kg, po; assay type: ADME, organism-based
[7] = Volume of distribution at steady state in rat at 1 mg/kg, iv and 3 mg/kg, po; assay type: ADME, organism-based; details: in vivo, read-out: Vdss
[8] = Fraction unbound in rat brain; assay type: ADME, tissue-based
[9] = AUC (0 to 8 hrs) ratio of drug level in brain to blood in rat at 3 mg/kg, po; assay type: ADME, organism-based; design: dose 3 mg/kg, route oral; details: read-out: Ratio AUC
[10] = Half life in rat at 1 mg/kg, iv and 3 mg/kg, po; assay type: ADME, organism-based; details: in vivo
[11] = Oral bioavailability in rat at 3 mg/kg; assay type: ADME, organism-based; details: in vivo
[12] = Fraction unbound in rat blood; assay type: ADME, tissue-based
[13] = AUC (0 to 8 hrs) ratio of drug level in brain to blood in rat at 1 mg/kg, po; assay type: ADME, organism-based; design: dose 1 mg/kg, route oral; details: read-out: Ratio AUC
[14] = Volume of distribution at steady state in rat at 0.5 mg/kg, iv and 1 mg/kg, po; assay type: ADME, organism-based; details: in vivo, read-out: Vdss
[15] = Half life in rat at 0.5 mg/kg, iv and 1 mg/kg, po; assay type: ADME, organism-based; details: in vivo
[16] = Oral bioavailability in rat at 1 mg/kg; assay type: ADME, organism-based; details: in vivo
[17] = Blood clearance in rat at 0.5 mg/kg, iv and 1 mg/kg, po; assay type: ADME, organism-based

Chain of Histamine H1 receptor (P35367 whole entry): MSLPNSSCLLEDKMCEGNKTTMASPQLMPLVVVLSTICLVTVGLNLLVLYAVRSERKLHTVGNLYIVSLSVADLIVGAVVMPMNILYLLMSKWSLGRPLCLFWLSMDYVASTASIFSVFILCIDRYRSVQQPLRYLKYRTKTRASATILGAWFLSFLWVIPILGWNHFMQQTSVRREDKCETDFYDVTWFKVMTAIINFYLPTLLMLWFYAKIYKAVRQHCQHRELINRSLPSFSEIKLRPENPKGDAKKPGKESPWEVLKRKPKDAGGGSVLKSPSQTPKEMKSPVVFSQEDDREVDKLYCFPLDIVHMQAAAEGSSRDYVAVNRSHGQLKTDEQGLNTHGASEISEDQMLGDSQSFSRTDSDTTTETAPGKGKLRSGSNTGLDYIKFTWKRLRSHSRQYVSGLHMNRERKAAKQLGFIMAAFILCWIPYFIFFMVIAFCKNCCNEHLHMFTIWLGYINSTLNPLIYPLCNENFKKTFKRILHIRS
Chain of 5-hydroxytryptamine receptor 2A (P28223 whole entry): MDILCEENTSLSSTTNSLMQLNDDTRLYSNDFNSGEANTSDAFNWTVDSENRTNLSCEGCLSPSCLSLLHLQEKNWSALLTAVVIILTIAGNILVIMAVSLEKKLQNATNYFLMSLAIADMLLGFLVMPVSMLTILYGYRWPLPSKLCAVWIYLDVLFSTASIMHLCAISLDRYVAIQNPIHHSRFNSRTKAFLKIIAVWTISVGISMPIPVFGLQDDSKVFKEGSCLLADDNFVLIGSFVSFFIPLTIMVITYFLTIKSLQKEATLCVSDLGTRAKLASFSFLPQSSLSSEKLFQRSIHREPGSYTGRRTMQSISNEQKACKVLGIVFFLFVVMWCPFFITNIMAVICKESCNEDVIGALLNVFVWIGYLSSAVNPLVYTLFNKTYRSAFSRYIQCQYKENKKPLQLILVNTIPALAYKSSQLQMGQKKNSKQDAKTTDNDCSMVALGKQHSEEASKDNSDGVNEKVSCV
Chain of 5-hydroxytryptamine receptor 2B (P41595 whole entry): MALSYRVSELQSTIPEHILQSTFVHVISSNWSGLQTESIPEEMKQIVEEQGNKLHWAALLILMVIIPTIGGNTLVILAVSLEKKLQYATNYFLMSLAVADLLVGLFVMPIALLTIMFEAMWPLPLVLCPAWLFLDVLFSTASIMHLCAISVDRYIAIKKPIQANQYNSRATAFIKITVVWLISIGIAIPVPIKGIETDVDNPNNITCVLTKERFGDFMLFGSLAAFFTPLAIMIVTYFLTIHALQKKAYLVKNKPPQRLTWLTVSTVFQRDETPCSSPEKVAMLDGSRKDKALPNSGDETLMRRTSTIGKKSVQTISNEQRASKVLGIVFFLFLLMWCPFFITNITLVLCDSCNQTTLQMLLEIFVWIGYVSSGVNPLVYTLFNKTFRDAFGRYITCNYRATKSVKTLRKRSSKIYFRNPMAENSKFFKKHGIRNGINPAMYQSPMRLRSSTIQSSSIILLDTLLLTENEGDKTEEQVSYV

Row | Ki [2] | Ki [4] | Ki (Histamine H1 receptor) | Ki [5] | SMILES | also measured
1 | 316 nM | 7.94 nM | 0.631 nM | 20 nM | C1=C(N2CCNCC2)c2nccn2Cc2ccccc21 | Ki [1]: 3.16 nM; Ki [3]: 3.98 nM
2 | > 794 nM | 316 nM | 50.1 nM | > 794 nM | O=C(O)CCN1CCN(C2=Cc3ccccc3Cn3ccnc32)CC1 | 
3 | 1580 nM | 79.4 nM | 25.1 nM | 50.1 nM | CC(C)(CN1CCN(C2=Cc3ccccc3Cn3ccnc32)CC1)C(=O)O | clearance [6]: 38 mL/min/kg; Vd [7]: 1.9 L/kg; fraction unbound [8]: > 0.5; Kp [9]: 0.02; half-life [10]: 0.7 h; bioavailability [11]: 61%; fraction unbound [12]: > 0.5
4 | 631 nM | 39.8 nM | 20 nM | 158 nM | CC1CN(C2=Cc3ccccc3Cn3ccnc32)CC(C)N1CCC(=O)O (stereo not drawn) | 
5 | > 794 nM | 200 nM | 31.6 nM | 501 nM | C=C(CN1CCN(C2=Cc3ccccc3Cn3ccnc32)CC1)C(=O)O | 
6 | 15.8 nM | 398 nM | 39.8 nM | 63.1 nM | Cc1nc2n(c1C)Cc1ccccc1C=C2N1CCN(CC(C)(C)C(=O)O)CC1 | 
7 | 63.1 nM | 126 nM | 50.1 nM | 31.6 nM | Cc1cn2c(n1)C(N1CCN(CC(C)(C)C(=O)O)CC1)=Cc1ccccc1C2 | 
8 | 100 nM |  |  |  | CC(C)(CN1CCN(C2=Cc3ccccc3Cn3cc(Cl)nc32)CC1)C(=O)O | 
9 | 316 nM | 100 nM | 39.8 nM | 316 nM | CC(C)(CN1CCN(C2=Cc3ccccc3Cn3cc(F)nc32)CC1)C(=O)O | Kp [13]: 0.04; fraction unbound [8]: 0.45; Vd [14]: 1.1 L/kg; half-life [15]: 1.8 h; bioavailability [16]: 45%; clearance [17]: 10 mL/min/kg; fraction unbound [12]: 0.4
10 | 158 nM | 251 nM | 126 nM | 501 nM | COc1cnc2n1Cc1ccccc1C=C2N1CCN(CC(C)(C)C(=O)O)CC1 | 
11 | 39.8 nM | 631 nM | 126 nM | > 2000 nM | O=C(O)C1CCC(N2CCN(C3=Cc4ccccc4Cn4ccnc43)CC2)CC1 (single isomer, unassigned; isomer 1) | 
12 | 25.1 nM | 501 nM | 63.1 nM |  | O=C(O)C1CCC(N2CCN(C3=Cc4ccccc4Cn4ccnc43)CC2)CC1 (stereo in doubt; 16) | pKi [5]: < 5.7

Row | SMILES | Ki [2] | Ki [4] | Ki (Histamine H1 receptor) | Ki [5] | also measured
13 | CC(C)(CN1CCCN(C2=Cc3ccccc3Cn3ccnc32)CC1)C(=O)O | > 2000 nM | > 5010 nM | 50.1 nM | > 2000 nM | 
14 | O=C(O)C1CC(N2CCN(C3=Cc4ccccc4Cn4ccnc43)CC2)C1 (single isomer, unassigned; isomer 2) |  |  | 25.1 nM |  | pKi ([2]; sh-sy5y): < 6.1; pKi ([4]; hek293): < 6.1; pKi [5]: < 6.1
15 | O=C(O)C1CC(N2CCN(C3=Cc4ccccc4Cn4ccnc43)CC2)C1 (stereo in doubt; 13) | > 794 nM | > 794 nM | 12.6 nM | > 794 nM | 
